Measurements published in PubChem BioAssay AID2124 (Sanford-Burnham Center for Chemical Genomics, 2009).
Results filed as inconclusive are left out. Calls of active or inactive are those of the source. The rule behind the calls is not given here; tested in MIN6 cells.

Assay: GFP-wavelength compound autofluorescence in cells – imaging, high-content imaging, artefact control, dose response (AID 2124);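 note: cells exposed to compound for 48 hours before fixing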
Conditions: cells, GFP-channel autofluorescence, high-content imaging, at 10 µM; for z-score: stronger effect = higher value

CC(C)(C)C(=O)c1sc2nc(-c3cccs3)cc(C(F)(F)F)c2c1N
z-score: -0.22 (inactive)
cell count: 2740 cells

O=C(CSc1ccc(-c2ccccc2)nn1)NCC1CCCO1 (configuration not stated)
z-score: -0.38 (inactive)
cell count: 2970 cells

COc1ccc(-n2c(Cc3cccn3C)nnc2SCC(=O)Nc2cccc(C)c2C)cc1
z-score: -0.33 (inactive)
cell count: 3130 cells

CC(=O)c1c(COC(=O)c2ccncc2)nc2ccccc2[n+]1[O-]
z-score: -0.33 (inactive)
cell count: 2880 cells

O=C(COc1ccccc1)N1CCN=C1c1ccccc1
z-score: -0.33 (inactive)
cell count: 3190 cells

COC(=O)c1sccc1NC(=O)c1cc(OC)c(OC)c(OC)c1
z-score: -0.39 (inactive)
cell count: 3020 cells

CN1CCN(C(=O)/C(=C\c2cccs2)NC(=O)c2cccs2)CC1
z-score: -0.33 (inactive)
cell count: 3070 cells

CCOC(=O)/C(=C\C=C1/Sc2cc(OCC)c(OCC)cc2N1CC)C(C)=O
z-score: 0.55
cell count: 2790 cells

O=C(NC1(C(F)(F)F)NC(=O)N(c2ccc(F)c(Cl)c2)C1=O)c1ccncc1 (configuration not stated)
z-score: -0.39 (inactive)
cell count: 3240 cells

CCOc1cc(C)c(S(=O)(=O)Nc2ccc3cn[nH]c3c2)cc1C
z-score: -0.33 (inactive)
cell count: 1550 cells

CC(=O)c1sc2nc(-c3cccs3)cc(C(F)(F)F)c2c1N
z-score: 0.17
cell count: 3260 cells

Cc1cnc(NC(=O)CN2CCN(c3ccccn3)CC2)s1
z-score: -0.39 (inactive)
cell count: 2360 cells

COc1ccc(CN(CC2CCC(C(=O)O)CC2)C(=S)Nc2cccc(C)c2)cc1 (configuration not stated)
z-score: -0.38 (inactive)
cell count: 3120 cells

COc1ccc(C2/C=C\CN(S(=O)(=O)c3cccc4cccnc34)CC(=O)N2Cc2ccc(F)cc2)cc1 (configuration not stated)
z-score: -0.39 (inactive)
cell count: 3760 cells

CCOCCCNc1nc2c(C)cccn2c(=O)c1/C=C1\SC(=S)N(CC(C)C)C1=O
z-score: -0.38 (inactive)
cell count: 2900 cells

Cc1ccc(-n2c3c(c(=O)[nH]c2=O)C(C(F)(F)F)(C(F)(F)F)NC(=O)N3)cc1
z-score: -0.33 (inactive)
cell count: 2850 cells

Cc1ccc(CN=Cc2[nH]c3ccc(Br)c(Cl)c3c2O)cc1
z-score: -0.33 (inactive)
cell count: 2930 cells

O=c1c(N2CCOCC2)c(N2CCOCC2)c1=O
z-score: -0.39 (inactive)
cell count: 3130 cells

COc1ccc(OC)c(C2=NOC(C(=O)NCC3CCCO3)C2)c1 (configuration not stated)
z-score: -0.39 (inactive)
cell count: 2830 cells

Cc1noc(C)c1S(=O)(=O)N1CCC(C(=O)N2CCN(C3CCCC3)CC2)CC1
z-score: -0.33 (inactive)
cell count: 2760 cells

Cc1ccc(N=C2NC(=O)/C(=C/c3cn(C)c4ccccc34)S2)cc1C
z-score: -0.23 (inactive)
cell count: 2580 cells

COc1ccc(NC(=O)CSc2nnc(-c3cccs3)n2C)cc1OC
z-score: -0.39 (inactive)
cell count: 2880 cells

Cc1cc(/C=C2\SC(=S)NC2=O)c(C)n1C1CC1
z-score: -0.3 (inactive)
cell count: 3040 cells

O=S(=O)(Cc1ccc(Cl)cc1)c1ccccc1-c1nnc(-c2ccccc2)o1
z-score: -0.39 (inactive)
cell count: 3320 cells

COc1ccccc1NC(=O)/C=C1\SCC(=O)N1C
z-score: -0.25 (inactive)
cell count: 3000 cells

C/C(=N\S(=O)(=O)c1ccc(C)cc1)N1CCN(S(=O)(=O)c2ccccc2)C1
z-score: -0.38 (inactive)
cell count: 3140 cells

CCC(C)(C(=O)NC1CCCC1)N(C(=O)CNC(C)=O)c1ccccc1 (configuration not stated)
z-score: -0.39 (inactive)
cell count: 2960 cells

CCS(=O)(=O)N1Cc2ccccc2CC1C(=O)OCC(=O)Nc1ccc(C)cc1 (configuration not stated)
z-score: -0.33 (inactive)
cell count: 3150 cells

Cc1ccc2nc(/C(C#N)=C\c3ccc(N4CCOCC4)o3)[nH]c2c1
z-score: 0.7
cell count: 2680 cells

Cc1cc2nc3c(=O)n(Cc4ccccc4)c(=O)[nH]c3nc2cc1N
z-score: -0.33 (inactive)
cell count: 2710 cells

N#C/C(=C/c1ccc(N2CCCCC2)o1)C(=O)NCCc1c[nH]c2ccccc12
z-score: 0.47
cell count: 3410 cells
